Measurements as given in US20080280837A1, “Biologically Active Compounds with Anti-Angiogenic Properties” (priority 2004, published 2008).

Biological target: T1, Human SST5 somatostatin receptor (SSTR5) (Homo sapiens, UniProt P35346)
T1 construct: expressed in transfected cells; host or cells: HEK-293 EBNA
Assay: Filter plate assay for SST5 receptor, displacement of [125I]SST-14
Type: binding
Conditions: 0.5 uM
In short: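 HEK-293 EBNA membranes expressing human SST5 (5.5 μg) incubated 60 min at 25 °C with 4 nM [125I]SST-14 and compound in pH 7.5 Tris/EGTA/MgCl2/sucrose buffer. Bound radioactivity collected on PEI-coated glass fiber filters and counted; triplicate 1:5 dilution series from 125 μM, non-specific binding with excess cold ligand.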

T1 sequence (P35346 whole entry): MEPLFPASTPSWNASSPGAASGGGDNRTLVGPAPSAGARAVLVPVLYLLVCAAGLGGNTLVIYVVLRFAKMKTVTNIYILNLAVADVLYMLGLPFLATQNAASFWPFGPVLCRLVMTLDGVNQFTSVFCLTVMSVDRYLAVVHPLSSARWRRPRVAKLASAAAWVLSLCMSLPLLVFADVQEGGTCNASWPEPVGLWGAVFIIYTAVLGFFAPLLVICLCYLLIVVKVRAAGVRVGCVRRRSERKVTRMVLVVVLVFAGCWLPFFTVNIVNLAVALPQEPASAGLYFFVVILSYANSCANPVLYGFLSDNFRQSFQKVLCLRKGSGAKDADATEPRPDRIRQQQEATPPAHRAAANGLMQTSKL

First: COC[C@H]1OC(OCc2ccc(Cl)cc2)[C@H](NC(=O)CNC(=N)N)[C@H](OCc2ccc3ccccc3c2)[C@@H]1O (stereo partly shown) [Compound 159]
Second: COC[C@H]1OC(OCc2ccc(Cl)cc2)[C@H](NC(=O)CCCNC(=N)N)[C@@H](OCc2ccc3ccccc3c2)[C@@H]1O (stereo partly shown) [Compound 160]
The “SSTR5 Inhib 0.5 uM % (inhibition of binding of SST-14 to SSTR5)” value (from here on “SSTR5 Inhib 0.5 uM %”) of the first is lower: 31% for the first, 40% for the second.

Compared with CO[C@H]1[C@H](O)[C@@H](COCc2ccc(-c3ccccc3)cc2)OC(OCc2ccc3ccccc3c2)[C@@H]1NC(=O)CCCN (stereo partly shown) [Compound 161], COC1C(O)C(COCc2ccc(-c3ccccc3)cc2)OC(OCc2ccc3ccccc3c2)C1NC(=O)CCNC(=N)N (stereo not shown) [Compound 169] is lower in “SSTR5 Inhib 0.5 uM %” value: 51% for the first, 27% for the second.

Compared with COC[C@H]1OC(OCc2ccccc2)[C@H](NC(=O)CNC(=N)N)[C@H](OCc2ccc3ccccc3c2)[C@@H]1O (stereo partly shown) [Compound 162], COC[C@H]1OC(OCc2ccc3ccccc3c2)[C@H](NC(=O)CCNC(=N)N)[C@@H](OCc2ccccc2)[C@@H]1O (stereo partly shown) [Compound 170] is lower in “SSTR5 Inhib 0.5 uM %” value: 30% for the first, 29% for the second.

Going from COC[C@H]1OC(OCc2ccccc2)[C@H](NC(=O)CCN)[C@H](OCc2ccccc2)[C@@H]1O (stereo partly shown) [Compound 163] to COC[C@H]1OC(OCc2ccc(Cl)cc2)[C@H](NC(=O)CCCN)[C@@H](OCc2ccccc2)[C@@H]1O (stereo partly shown) [Compound 164], the “SSTR5 Inhib 0.5 uM %” value rises from 34% to 39%.

Compared with COC[C@H]1OC(OCc2ccccc2)[C@H](NC(=O)CCCNC(=N)N)[C@@H](OCc2ccc(-c3ccccc3)cc2)[C@@H]1O (stereo partly shown) [Compound 165], COC[C@H]1OC(OCc2ccccc2)[C@H](NC(=O)CCNC(=N)N)[C@@H](OCc2ccc(-c3ccccc3)cc2)[C@@H]1O (stereo partly shown) [Compound 172] is lower in “SSTR5 Inhib 0.5 uM %” value: 37% for the first, 21% for the second.

Going from COC[C@H]1OC(OCCc2ccccc2)[C@H](NC(=O)CCNC(=N)N)[C@@H](OCc2ccc(Cl)cc2)[C@@H]1O (stereo partly shown) [Compound 166] to COC[C@H]1OC(OCCc2ccccc2)[C@H](NC(=O)CCCNC(=N)N)[C@@H](OCc2ccc(Cl)cc2)[C@@H]1O (stereo partly shown) [Compound 168], the “SSTR5 Inhib 0.5 uM %” value rises from 36% to 47%.

Compared with CSC1O[C@H](COCc2ccc(Cl)cc2)[C@@H](O)[C@@H](OCc2ccc3ccccc3c2)[C@H]1NC(=O)CN (stereo partly shown) [Compound 167], COC1C(O)C(COCc2ccc3ccccc3c2)OC(OCc2ccc(Cl)cc2)C1NC(=O)CNC(=N)N (stereo not shown) [Compound 173] is higher in “SSTR5 Inhib 0.5 uM %” value: 43% for the first, 47% for the second.

First: COC1C(O)C(COCc2ccc(-c3ccccc3)cc2)OC(OCc2ccccc2)C1NC(=O)CCCNC(=N)N (stereo not shown) [Compound 171]
Second: COC[C@H]1OC(OCc2ccc(-c3ccccc3)cc2)[C@H](NC(=O)CCCNC(=N)N)[C@@H](OCc2ccc3ccccc3c2)[C@@H]1O (stereo partly shown) [Compound 178]
The “SSTR5 Inhib 0.5 uM %” value of the first is higher: 44% for the first, 39% for the second.

Going from COC[C@H]1OC(OCc2ccc3ccccc3c2)[C@H](NC(=O)CNC(=N)N)[C@H](OCc2ccc3ccccc3c2)[C@@H]1O (stereo partly shown) [Compound 174] to COC1C(O)C(COCc2ccc(-c3ccccc3)cc2)OC(OCc2ccc(Cl)cc2)C1NC(=O)CNC(=N)N (stereo not shown) [Compound 177], the “SSTR5 Inhib 0.5 uM %” value rises from 31% to 47%.

First: COC[C@H]1OC(OCc2ccc(Cl)cc2)[C@H](NC(=O)CCCNC(=N)N)[C@H](OCc2ccccc2)[C@@H]1O (stereo partly shown) [Compound 176]
Second: CO[C@H]1[C@H](O)[C@@H](COCc2ccc(-c3ccccc3)cc2)OC(OCc2ccc(-c3ccccc3)cc2)[C@@H]1NC(=O)CCCN (stereo partly shown) [Compound 179]
The “SSTR5 Inhib 0.5 uM %” value of the first is higher: 37% for the first, 29% for the second.

Same assay, conditions: 10 uM

First: COC[C@H]1OC(OCc2ccc(Cl)cc2)[C@H](NC(=O)CNC(=N)N)[C@H](OCc2ccc3ccccc3c2)[C@@H]1O (stereo partly shown) [Compound 159]
Second: COC[C@H]1OC(OCc2ccc(Cl)cc2)[C@H](NC(=O)CCCNC(=N)N)[C@@H](OCc2ccc3ccccc3c2)[C@@H]1O (stereo partly shown) [Compound 160]
The “SSTR5 Inhib 10 uM % (inhibition of binding of SST-14 to SSTR5)” value (shortened to “SSTR5 Inhib 10 uM %”) of the first is higher: 75% for the first, 74% for the second.

First: CO[C@H]1[C@H](O)[C@@H](COCc2ccc(-c3ccccc3)cc2)OC(OCc2ccc3ccccc3c2)[C@@H]1NC(=O)CCCN (stereo partly shown) [Compound 161]
Second: COC1C(O)C(COCc2ccc(-c3ccccc3)cc2)OC(OCc2ccc3ccccc3c2)C1NC(=O)CCNC(=N)N (stereo not shown) [Compound 169]
The “SSTR5 Inhib 10 uM %” value of the first is higher: 74% for the first, 72% for the second.

First: COC[C@H]1OC(OCc2ccccc2)[C@H](NC(=O)CNC(=N)N)[C@H](OCc2ccc3ccccc3c2)[C@@H]1O (stereo partly shown) [Compound 162]
Second: COC[C@H]1OC(OCc2ccc3ccccc3c2)[C@H](NC(=O)CCNC(=N)N)[C@@H](OCc2ccccc2)[C@@H]1O (stereo partly shown) [Compound 170]
The “SSTR5 Inhib 10 uM %” value of the first is higher: 74% for the first, 72% for the second.

COC[C@H]1OC(OCc2ccccc2)[C@H](NC(=O)CCN)[C@H](OCc2ccccc2)[C@@H]1O (stereo partly shown) [Compound 163] and COC[C@H]1OC(OCc2ccc(Cl)cc2)[C@H](NC(=O)CCCN)[C@@H](OCc2ccccc2)[C@@H]1O (stereo partly shown) [Compound 164] are the same in “SSTR5 Inhib 10 uM %” value: 73% for the first, 73% for the second.

First: COC[C@H]1OC(OCc2ccccc2)[C@H](NC(=O)CCCNC(=N)N)[C@@H](OCc2ccc(-c3ccccc3)cc2)[C@@H]1O (stereo partly shown) [Compound 165]
Second: COC[C@H]1OC(OCc2ccccc2)[C@H](NC(=O)CCNC(=N)N)[C@@H](OCc2ccc(-c3ccccc3)cc2)[C@@H]1O (stereo partly shown) [Compound 172]
The “SSTR5 Inhib 10 uM %” value of the first is higher: 73% for the first, 72% for the second.

Going from COC[C@H]1OC(OCCc2ccccc2)[C@H](NC(=O)CCNC(=N)N)[C@@H](OCc2ccc(Cl)cc2)[C@@H]1O (stereo partly shown) [Compound 166] to COC[C@H]1OC(OCCc2ccccc2)[C@H](NC(=O)CCCNC(=N)N)[C@@H](OCc2ccc(Cl)cc2)[C@@H]1O (stereo partly shown) [Compound 168], the “SSTR5 Inhib 10 uM %” value falls from 73% to 72%.

Going from CSC1O[C@H](COCc2ccc(Cl)cc2)[C@@H](O)[C@@H](OCc2ccc3ccccc3c2)[C@H]1NC(=O)CN (stereo partly shown) [Compound 167] to COC1C(O)C(COCc2ccc3ccccc3c2)OC(OCc2ccc(Cl)cc2)C1NC(=O)CNC(=N)N (stereo not shown) [Compound 173], the “SSTR5 Inhib 10 uM %” value falls from 73% to 71%.

Compared with COC1C(O)C(COCc2ccc(-c3ccccc3)cc2)OC(OCc2ccccc2)C1NC(=O)CCCNC(=N)N (stereo not shown) [Compound 171], COC[C@H]1OC(OCc2ccc(-c3ccccc3)cc2)[C@H](NC(=O)CCCNC(=N)N)[C@@H](OCc2ccc3ccccc3c2)[C@@H]1O (stereo partly shown) [Compound 178] is lower in “SSTR5 Inhib 10 uM %” value: 72% for the first, 71% for the second.

COC[C@H]1OC(OCc2ccc3ccccc3c2)[C@H](NC(=O)CNC(=N)N)[C@H](OCc2ccc3ccccc3c2)[C@@H]1O (stereo partly shown) [Compound 174] and COC1C(O)C(COCc2ccc(-c3ccccc3)cc2)OC(OCc2ccc(Cl)cc2)C1NC(=O)CNC(=N)N (stereo not shown) [Compound 177] are the same in “SSTR5 Inhib 10 uM %” value: 71% for the first, 71% for the second.

First: COC[C@H]1OC(OCc2ccc(Cl)cc2)[C@H](NC(=O)CCCNC(=N)N)[C@H](OCc2ccccc2)[C@@H]1O (stereo partly shown) [Compound 176]
Second: CO[C@H]1[C@H](O)[C@@H](COCc2ccc(-c3ccccc3)cc2)OC(OCc2ccc(-c3ccccc3)cc2)[C@@H]1NC(=O)CCCN (stereo partly shown) [Compound 179]
The “SSTR5 Inhib 10 uM %” value of the first is higher: 71% for the first, 70% for the second.
